# From PubChem BioAssay (NCI)
#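 Values below derive from 48-hour exposures of cells grown in 96-well plates, with endpoints linearly interpolated between the two concentrations bracketing the appropriate inhibition level. GI50: concentration for 50% inhibition of growth. TGI: concentration producing complete growth inhibition.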
# What was measured:
# Assay in all cases: NCI tumour cell line growth inhibition, 48 h
# MALME-3M melanoma = test system: MALME-3M melanoma
# HCT-15 colon = test system: HCT-15 colon
# COLO 205 colon = test system: COLO 205 colon
# 786-0 renal = test system: 786-0 renal
# SN12C renal = test system: SN12C renal
# SK-MEL-28 melanoma = test system: SK-MEL-28 melanoma
# HCT-116 colon = test system: HCT-116 colon
# A549 NSCLC = test system: A549 NSCLC
# SW-620 colon = test system: SW-620 colon
# RPMI-8226 leukemia = test system: RPMI-8226 leukemia
Structure (SMILES),TGI (MALME-3M melanoma) [µM],TGI (HCT-15 colon) [µM],TGI (COLO 205 colon) [µM],TGI (786-0 renal) [µM],TGI (SN12C renal) [µM],TGI (SK-MEL-28 melanoma) [µM],TGI (HCT-116 colon) [µM],TGI (A549 NSCLC) [µM],TGI (SW-620 colon) [µM],TGI (RPMI-8226 leukemia) [µM],GI50 (MALME-3M melanoma) [µM],GI50 (HCT-15 colon) [µM],GI50 (COLO 205 colon) [µM],GI50 (786-0 renal) [µM],GI50 (SN12C renal) [µM],GI50 (SK-MEL-28 melanoma) [µM],GI50 (HCT-116 colon) [µM],GI50 (A549 NSCLC) [µM],GI50 (SW-620 colon) [µM],GI50 (RPMI-8226 leukemia) [µM]
CCCCCCCCCCCCCCCC(=O)NCC(COP(=O)([O-])OCC[N+](C)(C)C)OCC (stereo not given),30.8,19.3,5.1,5.82,25,36.6,23.9,45.7,27.4,9.76,–,–,–,–,–,–,–,–,–,–
Cc1ccn2c3c(c(C(=O)O)c2c1)C(=O)c1ccccc1C3=O,1.92,> 100,8.75,> 100,> 100,> 100,> 100,4.4,> 100,> 100,0.48,5.14,2.62,> 87.4,7.97,4.44,> 48.3,1.77,15.1,> 100
CCOC(=O)C1=C(C)Nc2ccccc2S1,> 100,> 100,> 100,> 100,> 100,> 100,> 100,> 100,> 100,> 100,–,–,–,–,–,–,–,–,–,–
CCCCCCCCCCCCCC(=S)NCCCC[C@H](NC(=O)OCc1ccccc1)C(=O)Nc1ccccc1,> 100,> 100,22.5,> 100,> 100,> 100,> 100,> 100,> 100,> 100,7.41,3.52,3.87,5.43,3.81,7.99,3.77,6.31,4.12,3.5
C=C1CCC2C(/C=C(\C)CCC1O)OC(=O)C2C (stereo not given),> 100,> 100,> 100,> 100,> 100,> 100,> 100,> 100,> 100,> 100,> 100,> 100,> 100,> 100,> 100,> 100,> 100,> 100,> 100,90.4
C#Cc1cnc(=O)n(C2CC(O)C(CO)O2)c1 (stereo not given),> 100,> 100,> 100,> 100,> 100,> 100,> 100,> 100,> 100,> 22.8,> 100,> 100,> 100,> 100,> 100,> 100,> 100,> 100,> 100,8.51
O=C1NC2(CCCC2)C(=O)C12CCCC2,> 100,> 100,> 100,> 100,> 100,> 100,> 100,> 100,> 100,> 100,–,–,–,–,–,–,–,–,–,–
